Assay results: article PMC3430861, “The pharmacological profile of ELIC, a prokaryotic GABA-gated receptor” (Neuropharmacology, 2012)

target: T1, ELIC (Dickeya chrysanthemi, UniProt P0C7B7, INS163G); test: cell-based; type: cell-based, Erwinia chrysanthemi
T1 construct: expressed in transfected cells; host or cells: Xenopus laevis oocytes injected with cRNA
Procedure: Xenopus laevis oocyte-positive females were purchased from NASCO (Fort Atkinson, Wisconsin, USA) and maintained according to standard methods.
The ELIC sequence (Genbank accession number POC7B7) was purchased from Genscript as a synthetic gene with optimized codon usage for expression in Escherichia coli. […] Stage V and VI oocytes were injected with 20 ng cRNA, and currents recorded 1–3 days post-injection.

| SMILES | EC50 [mM] |
| --- | --- |
| NC(=O)C[C@H](N)C(=O)O [Asparagine] | > 10 |
| CSCC[C@H](N)C(=O)O [Methionine] | > 10 |
| NCCCC[C@H](N)C(=O)O [Lysine] | > 10 |
| C[C@H](N)C(=O)O [Alanine] | > 10 |
| N[C@@H](Cc1c[nH]cn1)C(=O)O [Histidine] | > 10 |
| CC(C)C[C@H](N)C(=O)O [Leucine] | > 10 |
| NC(=O)CC[C@H](N)C(=O)O [Glutamine] | > 10 |
| CC(C)[C@H](N)C(=O)O [Valine] | > 10 |
| N[C@@H](CS)C(=O)O [Cysteine] | > 10 |
| O=C(O)CCC(=O)O [succinic acid] | > 10 |
| O=C(O)[C@@H]1CCCN1 [Proline] | > 10 |
| NCc1cc(=O)[nH]o1 [muscimol] | > 10 |
| N[C@@H](Cc1ccc(O)cc1)C(=O)O [Tyrosine] | > 10 |
| O=C1CCCO1 [γ-butyrolactone] | > 10 |
| N[C@@H](Cc1ccccc1)C(=O)O [Phenylalanine] | > 10 |
| N[C@@H](Cc1c[nH]c2ccccc12)C(=O)O [Tryptophan] | > 10 |
| N=C(N)NCCC[C@H](N)C(=O)O [Arginine] | > 10 |
| NCCC(=O)O [β-alanine] | > 10 |
| O=C(O)[C@@H]1CCC(O)=N1 [pyroglutamate] | > 10 |
| N[C@@H](CCC(=O)O)C(=O)O [L-glutamate] | > 10 |
| N[C@@H](CC(=O)O)C(=O)O [Aspartate] | > 10 |
| C[C@@H](O)[C@H](N)C(=O)O [Threonine] | > 10 |
| CC[C@H](C)[C@H](N)C(=O)O [Isoleucine] | > 10 |
| N[C@@H](CO)C(=O)O [Serine] | > 10 |
